Values joined by “and” are separate entries in the source; they are usually repeats but may differ in a detail not shown here. Equal entries are not always repeated. Values belong to the compound of their own block, whether it stands above or below them.
Assays:
[1] = Second-order kinetics of cyclooctyne hydroamination by N,N-diethylhydroxylamine (NMR; competition experiment for 10); format: physicochemical; conditions: CD3CN, room temperature; for k2 (M^−1s^−1), second order rate constant: equimolar cyclooctyne and N,N-diethylhydroxylamine, NMR, error = standard deviation of the mean, triplicate
Description: Using NMR spectroscopy to monitor reaction progress, the second order rate constants for the reaction of N,N-diethylhydroxyl amine (1) with a panel of cyclooctynes 2-10 in d3-acetonitrile was determined at room temperature (FIG. 3).
All kinetics experiments were carried out at room temperature in CD3CN. Reactions were monitored via NMR spectroscopy using an internal standard. Second order kinetics were performed by combining cyclooctynes and N,N-diethylhydroxylamine in a 1:1 ratio. […] The reported errors for rate constants are based on the standard deviation of the mean for experiments performed in triplicate.
The second order rate constant for difluorocyclooctyne 10 was determined using a competition experiment with carbamate 9. […] The solution was transferred to an NMR tube and the product ratio (S14:S13) was determined by ^1HNMR spectroscopy using 1,3,5-trimethoxylbenzene as an internal standard. […] The reported error for the rate constant is the standard deviation of the mean for experiments performed in triplicate.

[2] = Stability study of alkynes and enamine N-oxide 20′ in 50% CD3CN/PBS with or without glutathione or cell lysate (19F NMR); format: physicochemical; conditions: for time over which compound is stable: 2 mM compound, 50% CD3CN/PBS (pH 7.0), 19F NMR; for degradation by 19F NMR without glutathione: pH 7.0, room temperature, 7 days
Description: The stability of alkynes 13′-15′ under biological conditions was evaluated (FIG. 13B). […] These stabilities compared favorably with contemporary bioorthogonal transformations (Oliveira et al., Chem. Soc. Rev. 46(16):4895-4950 (2017); Tian et al., ACS Chem. Biol. 14(12):2489-2496 (2019)). […] This observation was consistent with σ-withdrawing/n-donating alkyne substituents, such as halogens, simultaneously promoting hydroamination and attenuating conjugate addition by cellular nucleophiles.
The enamine N-oxide products were remarkably stable, especially in aqueous solutions.
All stability experiments were carried out at room temperature in 50% CD3CN in PBS (pH 7.0) with or without equimolar glutathione. pH was adjusted after the addition of glutathione. Reactions were monitored via ^19F NMR spectroscopy using α,α,α-benzotrifluoride as an internal standard (FIG. 17-FIG. 20).

[3] = Reactivity screening of linear alkynes 8′-15′ (NMR conversion); format: physicochemical; conditions: 10 mM alkyne, 5 equivalents hydroxylamine, CD3CN, room temperature, 48 hours
Description: With the desired alkynes in hand, their reactivity toward N,N-diethylhydroxylamine (2′) was examined. […] were each incubated with 5 equivalents of […] in CD3CN at room temperature, and the reaction conversions were monitored by ^1H (alkyne 8′) or ^19F (alkynes 9′-15′) NMR (FIG. 12A). […] Their conversion to the corresponding enamine N-oxides could only be achieved upon heating to 60° C. (Example 59).
Each experiment was performed with 10 mM alkyne (8′-15′) and 50 mM […] in CD3CN at room temperature. The consumption of starting material was monitored via ^1H (8′) or ^19F (9′-15′) NMR spectroscopy using α,α,α-benzotrifluoride as an internal standard (FIG. 12A).

[4] = target: T1, lysozyme-cyclooctyne conjugate (Lys-COT) 11″ (Gallus gallus, UniProt P00698); experiment: Time-dependent labeling of Lys-COT 11″ by TAMRA-hydroxylamines 6″-10″ (in-gel fluorescence); format: biochemical; conditions: 200 μM hydroxylamine, 10 μM Lys-COT 11″, PBS; for time to complete conversion (lysozyme labeling): room temperature; for extent of lysozyme labeling: 1-72 h
T1 construct: purchased
T1 sequence (P00698 19-147): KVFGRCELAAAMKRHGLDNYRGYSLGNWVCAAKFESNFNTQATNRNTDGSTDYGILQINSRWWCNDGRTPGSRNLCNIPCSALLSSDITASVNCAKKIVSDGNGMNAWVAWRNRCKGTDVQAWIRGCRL
Description: The relative rates of hydroamination between TAMRA-hydroxylamines 6″-10″ ([…]) and Lys-COT 11″ (10 μM) were evaluated by monitoring the extent of lysozyme labeling over 1-72 h in phosphate-buffered saline (PBS) at room temperature by in-gel fluorescence (FIG. 26B).
Lysozyme (CAS 12650-88-3, 50 mg/mL in deionized H2O) was diluted into phosphate-buffered saline (PBS, pH 7.4) to a final concentration of 10 mg/mL. […] The reaction solution was incubated for 1 h at room temperature. […] The concentration of lysozyme was determined by A280 measurement in denaturing buffer (pH 7.0, 6 M guanidinium, 30 mM MOPS) on a UV-vis spectrophotometer. The solution was diluted with PBS (pH 7.4) to a final concentration of 0.15 mg/mL or 0.60 mg/mL for labeling experiments. The protein solutions were snap frozen under liquid nitrogen and stored at −20° C.
Time-dependent protein labeling experiments: A solution of TAMRA-hydroxylamine 6″ (Kang, et al., J. Am. Chem. Soc. 143:5616-5621 (2021))-8″ and 10″ (1.26 μL, 5 mM in H2O; 200 μM final concentration) or 9″ (1.26 μL, 5 mM in 50% DMSO/H2O; 200 μM final concentration) was added to a solution of lysozyme-COT 11″ (30.0 μL, 0.15 mg/mL in PBS, pH 7.4). The reaction mixtures were incubated at room temperature in the dark. At each time point, an aliquot of the reaction mixture (3 uL) was removed, quenched by adding 1×SDS sample buffer (19.5 μL) and N,N-diethylhydroxylamine (7.5 uL, 100 mM in H2O; 25 mM final concentration), snap frozen in liquid nitrogen, and stored at −80° C. until all samples were ready to be loaded on the gel. After 72 h, all reactions had been quenched. All samples were thawed, and each solution (6 μL) was loaded onto a 15-well 12% SDS-PAGE gel. The gel was run at room temperature and at 175 V for 50 min. In-gel fluorescence was imaged with a Typhoon™ FLA 9500 (GE) at 532 nm with a photomultiplier tube (PMT) setting of 500 V (FIG. 35-FIG. 37).

Compound: dibenzoazacyclooctyne [compound 8, reference compound]
k2 (M^−1s^−1), second order rate constant [1]: 2.77 ± 0.13 M⁻¹ s⁻¹

time over which compound is stable [2]: ≥ 2 weeks
degradation by 19F NMR without glutathione ([2]; 50% CD3CN/PBS): no degradation
Compound: COc1ccc(COCCOC(F)(F)C#CCl)cc1 [14′, 1-((2-((3-chloro-1,1-difluoroprop-2-yn-1-yl)oxy)ethoxy)methyl)-4-methoxybenzene]

time to degradation in the presence of thiol ([2]; 50% CD3CN/PBS, pH 7.0, 2 mM glutathione): < 10 min
Compound: COc1ccc(COCCOC(F)(F)C#CBr)cc1 [13′, 1-((2-((3-bromo-1,1-difluoroprop-2-yn-1-yl)oxy)ethoxy)methyl)-4-methoxybenzene]

Compound: C#CC(F)CCOCc1ccc(OC)cc1 (centres unmarked) [9′, 1-(((3-fluoropent-4-yn-1-yl)oxy)methyl)-4-methoxybenzene]
reactivity toward N,N-dialkylhydroxylamine (NMR conversion) [3]: no conversion

Compound: OC1C#CCCCCC1 (centres unmarked) [compound 4, cyclooct-2-yn-1-ol]
k2 (M^−1s^−1), second order rate constant [1]: 1.19 ± 0.15 M⁻¹ s⁻¹

Compound: COc1ccc(COCCOC(F)(F)C#CI)cc1 [12′, 1-((2-((1,1-difluoro-3-iodoprop-2-yn-1-yl)oxy)ethoxy)methyl)-4-methoxybenzene]
reactivity toward N,N-dialkylhydroxylamine (NMR conversion) [3]: moderate reactivity

Compound: CC(=O)OC1C#CCCCCC1 (centres unmarked) [compound 6, cyclooct-2-yn-1-yl acetate]
k2 (M^−1s^−1), second order rate constant [1]: 2.13 ± 0.03 M⁻¹ s⁻¹

Compound: C#CCOCc1ccc(OC)cc1 [8′, 1-methoxy-4-((prop-2-yn-1-yloxy)methyl)benzene]
reactivity toward N,N-dialkylhydroxylamine (NMR conversion) [3]: no conversion

Compound: C#CC(F)(F)OCCOCc1ccc(OC)cc1 [11′, 1-((2-((1,1-difluoroprop-2-yn-1-yl)oxy)ethoxy)methyl)-4-methoxybenzene]
reactivity toward N,N-dialkylhydroxylamine (NMR conversion) [3]: moderate reactivity

Compound: O=C(Nc1ccc([N+](=O)[O-])cc1)OC1C#CCCCCC1 (centres unmarked) [compound 9, cyclooct-2-yn-1-yl (4-nitrophenyl)carbamate]
rate acceleration over cyclooctyne (2) [1]: 120 fold
k2 (M^−1s^−1), second order rate constant [1]: 3.87 M⁻¹ s⁻¹ and 3.87 ± 0.55 M⁻¹ s⁻¹

Compound: C1#CC2(CCCCC1)OCCO2 [compound 5, 1,4-dioxaspiro[4.7]dodec-6-yne]
k2 (M^−1s^−1), second order rate constant [1]: 1.20 ± 0.09 M⁻¹ s⁻¹

time to complete conversion (lysozyme labeling) [4]: ≤ 10 h
Compound: CN(C)c1ccc2c(c1)Oc1cc(N(C)C)ccc1C21OC(=O)c2ccc(C(=O)N3CCN(O)CC3)cc21 [10″, 3′,6′-Bis(dimethylamino)-6-(4-hydroxypiperazine-1-carbonyl)-3H-spiro[isobenzofuran-1,9′-xanthen]-3-one]

extent of lysozyme labeling [4]: poor labeling
Compound: CN(C)c1ccc2c(c1)Oc1cc(N(C)C)ccc1C21OC(=O)c2ccc(C(=O)NCCOCCN(O)C(C)(C)C)cc21 [8″, N-(2-(2-(tert-Butyl(hydroxy)amino)ethoxy)ethyl)-3′,6′-bis(dimethylamino)-3-oxo-3H-spiro[isobenzofuran-1,9′-xanthene]-6-carboxamide]

time to complete conversion (lysozyme labeling) [4]: ≤ 6 h
Compound: CN(C)c1ccc2c(c1)Oc1cc(N(C)C)ccc1C21OC(=O)c2ccc(C(=O)NCCOCCN(O)Cc3ccccc3)cc21 [9″, N-(2-(2-(Benzyl(hydroxy)amino)ethoxy)ethyl)-3′,6′-bis(dimethylamino)-3-oxo-3H-spiro[isobenzofuran-1,9′-xanthene]-6-carboxamide]

Compound: FC1C#CCCCCC1 (centres unmarked) [compound 7, 3-fluorocyclooct-1-yne]
k2 (M^−1s^−1), second order rate constant [1]: 2.71 ± 0.43 M⁻¹ s⁻¹

degradation in cell lysate ([2]; cell lysate, room temperature, 24 hours): no observable degradation
Compound: CC[N+]([O-])(CC)/C(Cl)=C/C(F)(F)OCCOCc1ccc(OC)cc1 [20′, (Z)-1-chloro-N,N-diethyl-3,3-difluoro-3-(2-((4-methoxybenzyl)oxy)ethoxy)prop-1-en-1-amine oxide]

extent of lysozyme labeling [4]: poor labeling
Compound: CC(C)N(O)CCOCCNC(=O)c1ccc2c(c1)C1(OC2=O)c2ccc(N(C)C)cc2Oc2cc(N(C)C)ccc21 [7″, 3′,6′-Bis(dimethylamino)-N-(2-(2-(hydroxy(isopropyl)amino)ethoxy)ethyl)-3-oxo-3H-spiro[isobenzofuran-1,9′-xanthene]-6-carboxamide]

time over which compound is stable [2]: ≥ 1 weeks
half-life ([2]; 50% CD3CN/PBS with 2 mM glutathione, pH 7, 50% CD3CN/PBS, pH 7.0, 2 mM glutathione, room temperature (500 μM compound elsewhere in the source), read-out: half-life in the presence of glutathione (converted)): 43 h
degradation by 19F NMR without glutathione ([2]; 50% CD3CN/PBS): no degradation
Compound: COc1ccc(COCCC(F)(F)C#CCl)cc1 [15′, 1-(((5-chloro-3,3-difluoropent-4-yn-1-yl)oxy)methyl)-4-methoxybenzene]

Compound: C#CC(F)(F)CCOCc1ccc(OC)cc1 [10′, 1-(((3,3-difluoropent-4-yn-1-yl)oxy)methyl)-4-methoxybenzene]
reactivity toward N,N-dialkylhydroxylamine (NMR conversion) [3]: partial conversion

— US20240165259A1, “BIOORTHOGONAL REACTION SUITABLE FOR CLICK/UNCLICK APPLICATIONS” (DANA-FARBER CANCER INSTITUTE, INC., priority 2021, published 2024)
